According to patent US12077503B2, “Substituted cyclic amides and their use as herbicides” (FMC CORPORATION, priority 2015, dated 2024):

Tests used:
Assay type in all cases: in vivo
[1] = test system: blackgrass (Alopecurus myosuroides); assay: Test A postemergence; details: Alopecurus myosuroides, post-emergence, 240 h, postemergence; for pest or weed control at 125 g/ha: 125 g ai/ha, visual injury vs untreated controls after approx. 10 d, 0 = no effect, 100 = complete control, read-out: Blackgrass plant response rating (0 to 100 scale); for pest or weed control at 500 g/ha: 500 g ai/ha, 0 to 100 scale, 0 is no effect, 100 is complete control, read-out: Blackgrass plant response rating
Method in brief: (§1)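 Treatment is preemergence as a directed soil spray after planting, or postemergence at the one- to two-leaf stage, with test chemical in a non-phytotoxic solvent mixture plus surfactant. Plants stay in the greenhouse about 10 d before visual injury scoring on a 0 to 100 scale versus untreated controls.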

[2] = test system: ryegrass, Italian (Italian ryegrass, Lolium multiflorum); assay: Test A postemergence; details: Lolium multiflorum, post-emergence, 240 h, postemergence; for pest or weed control at 125 g/ha: 125 g ai/ha, visual injury vs untreated controls after approx. 10 d, 0 = no effect, 100 = complete control, read-out: Ryegrass, Italian plant response rating (0 to 100 scale); for pest or weed control at 500 g/ha: 500 g ai/ha, 0 to 100 scale, 0 is no effect, 100 is complete control, read-out: Ryegrass, Italian plant response rating
Method in brief: as §1

[3] = test system: giant foxtail (Setaria faberii); assay: Test A postemergence; details: Setaria faberi, post-emergence, 240 h, postemergence; for pest or weed control at 125 g/ha: 125 g ai/ha, visual injury vs untreated controls after approx. 10 d, 0 = no effect, 100 = complete control, read-out: Foxtail, Giant plant response rating (0 to 100 scale); for pest or weed control at 500 g/ha: 500 g ai/ha, 0 to 100 scale, 0 is no effect, 100 is complete control, read-out: Foxtail, Giant plant response rating
Method in brief: as §1

[4] = test system: wheat (Triticum aestivum); assay: Test A postemergence; details: Triticum aestivum, post-emergence, 240 h, postemergence; for plant injury at 125 g/ha: 125 g ai/ha, visual injury vs untreated controls after approx. 10 d, 0 = no effect, 100 = complete control, read-out: Wheat plant response rating (0 to 100 scale); for plant injury at 500 g/ha: 500 g ai/ha, 0 to 100 scale, 0 is no effect, 100 is complete control, read-out: Wheat plant response rating
Method in brief: as §1

[5] = test system: ragweed (common ragweed, Ambrosia elatior); assay: Test A postemergence; details: Ambrosia artemisiifolia, post-emergence, 240 h, postemergence; for pest or weed control at 125 g/ha: 125 g ai/ha, visual injury vs untreated controls after approx. 10 d, 0 = no effect, 100 = complete control, read-out: Ragweed plant response rating (0 to 100 scale); for pest or weed control at 500 g/ha: 500 g ai/ha, 0 to 100 scale, 0 is no effect, 100 is complete control, read-out: Ragweed plant response rating
Method in brief: as §1

[6] = test system: pigweed (Amaranthus retroflexus); assay: Test A postemergence; details: Amaranthus retroflexus, post-emergence, 240 h, postemergence; for pest or weed control at 125 g/ha: 125 g ai/ha, visual injury vs untreated controls after approx. 10 d, 0 = no effect, 100 = complete control, read-out: Pigweed plant response rating (0 to 100 scale); for pest or weed control at 500 g/ha: 500 g ai/ha, 0 to 100 scale, 0 is no effect, 100 is complete control, read-out: Pigweed plant response rating
Method in brief: as §1

[7] = test system: barnyardgrass (Echinochloa crus-galli); assay: Test A postemergence; details: Echinochloa crus-galli, post-emergence, 240 h, postemergence; for pest or weed control at 125 g/ha: 125 g ai/ha, visual injury vs untreated controls after approx. 10 d, 0 = no effect, 100 = complete control, read-out: Barnyardgrass plant response rating (0 to 100 scale); for pest or weed control at 500 g/ha: 500 g ai/ha, 0 to 100 scale, 0 is no effect, 100 is complete control, read-out: Barnyardgrass plant response rating
Method in brief: as §1

[8] = test system: Galium (catchweed bedstraw, Galium aparine); assay: Test A postemergence; details: Galium, post-emergence, 240 h, postemergence; for pest or weed control at 125 g/ha: 125 g ai/ha, visual injury vs untreated controls after approx. 10 d, 0 = no effect, 100 = complete control, read-out: Galium plant response rating (0 to 100 scale); for pest or weed control at 500 g/ha: 500 g ai/ha, 0 to 100 scale, 0 is no effect, 100 is complete control, read-out: Galium plant response rating
Method in brief: as §1

corn (Zea mays) = assay: Test A postemergence; details: Zea mays, post-emergence, 240 h, postemergence; for plant injury at 125 g/ha: 125 g ai/ha, visual injury vs untreated controls after approx. 10 d, 0 = no effect, 100 = complete control, read-out: Corn plant response rating (0 to 100 scale); for plant injury at 500 g/ha: 500 g ai/ha, 0 to 100 scale, 0 is no effect, 100 is complete control, read-out: Corn plant response rating
Method in brief: as §1

[9] = test system: ryegrass, Italian (Italian ryegrass, Lolium multiflorum); assay: Test A preemergence; details: Lolium multiflorum, pre-emergence, 240 h, preemergence, 0 to 100 scale where 0 is no effect and 100 is complete control, read-out: Ryegrass, Italian plant response rating; for pest or weed control at 125 g/ha: 125 g ai/ha, visual injury rating, approximately 10 d; for pest or weed control at 500 g/ha: 500 g ai/ha
Method in brief: as §1

[10] = test system: giant foxtail (Setaria faberii); assay: Test A preemergence; details: Setaria faberi, pre-emergence, 240 h, preemergence, 0 to 100 scale where 0 is no effect and 100 is complete control, read-out: Foxtail, Giant plant response rating; for pest or weed control at 125 g/ha: 125 g ai/ha, visual injury rating, approximately 10 d; for pest or weed control at 500 g/ha: 500 g ai/ha
Method in brief: as §1

[11] = test system: ragweed (common ragweed, Ambrosia elatior); assay: Test A preemergence; details: Ambrosia artemisiifolia, pre-emergence, 240 h, preemergence, 0 to 100 scale where 0 is no effect and 100 is complete control, read-out: Ragweed plant response rating; for pest or weed control at 125 g/ha: 125 g ai/ha, visual injury rating, approximately 10 d; for pest or weed control at 500 g/ha: 500 g ai/ha
Method in brief: as §1

[12] = test system: barnyardgrass (Echinochloa crus-galli); assay: Test A preemergence; details: Echinochloa crus-galli, pre-emergence, 240 h, preemergence, 0 to 100 scale where 0 is no effect and 100 is complete control, read-out: Barnyardgrass plant response rating; for pest or weed control at 125 g/ha: 125 g ai/ha, visual injury rating, approximately 10 d; for pest or weed control at 500 g/ha: 500 g ai/ha
Method in brief: as §1

Kochia (Kochia scoparia) = assay: Test A preemergence; details: Bassia scoparia, pre-emergence, 240 h, preemergence, 0 to 100 scale where 0 is no effect and 100 is complete control, read-out: Kochia plant response rating; for pest or weed control at 125 g/ha: 125 g ai/ha, visual injury rating, approximately 10 d; for pest or weed control at 500 g/ha: 500 g ai/ha
Method in brief: as §1

Row | Compound | pest or weed control at 125 g/ha [1] [%] | pest or weed control at 500 g/ha [1] [%] | pest or weed control at 125 g/ha [2] [%] | pest or weed control at 500 g/ha [2] [%] | pest or weed control at 125 g/ha [3] [%] | pest or weed control at 500 g/ha [3] [%] | plant injury at 125 g/ha [4] [%] | pest or weed control at 125 g/ha [5] [%] | pest or weed control at 500 g/ha [5] [%] | pest or weed control at 125 g/ha [6] [%] | pest or weed control at 500 g/ha [6] [%] | pest or weed control at 125 g/ha [7] [%] | pest or weed control at 500 g/ha [7] [%] | pest or weed control at 125 g/ha [8] [%] | pest or weed control at 500 g/ha [8] [%] | plant injury at 125 g/ha (corn (Zea mays)) [%] | plant injury at 500 g/ha (corn (Zea mays)) [%] | pest or weed control at 125 g/ha [9] [%] | pest or weed control at 500 g/ha [9] [%] | pest or weed control at 125 g/ha [10] [%] | further results
1 | Cc1ccc([C@H]2CCN(C)C(=O)[C@@H]2C(=O)Nc2cccc(F)c2F)cc1 [Compound 1220] | 30 | 40 | 20 | 30 | 80 | 80 | 20 | 20 | 30 | 20 | 20 | 70 | 80 | 30 | 40 | 30 | 70 | 30 | 50 | 90 | plant injury at 500 g/ha [4]: 40%; pest or weed control at 500 g/ha [10]: 90%; pest or weed control at 125 g/ha [11]: 30%; pest or weed control at 500 g/ha [11]: 40%; pest or weed control at 125 g/ha [12]: 90%; pest or weed control at 500 g/ha [12]: 90%; pest or weed control at 125 g/ha (Kochia (Kochia scoparia)): 40%; pest or weed control at 500 g/ha (Kochia (Kochia scoparia)): 50%
2 | CN1CC[C@H](c2ccc(C(F)(F)F)cc2)[C@@H](C(=O)Nc2cccc(F)c2F)C1=O [Compound 1225] | 30 | 40 | 30 | 30 | 90 | 90 | 30 | 40 | 50 | 30 | 40 | 90 | 90 | 50 | 70 | 30 | 90 | 20 | 40 | 90 | plant injury at 500 g/ha [4]: 70%; pest or weed control at 500 g/ha [10]: 90%; pest or weed control at 125 g/ha [11]: 50%; pest or weed control at 500 g/ha [11]: 60%; pest or weed control at 125 g/ha [12]: 90%; pest or weed control at 500 g/ha [12]: 90%; pest or weed control at 125 g/ha (Kochia (Kochia scoparia)): 60%; pest or weed control at 500 g/ha (Kochia (Kochia scoparia)): 70%
3 | CSc1ccccc1NC(=O)[C@H]1C(=O)N(C)C[C@@H]1c1cccc(C)c1 [Compound 1232] | 0 | 40 | 30 | 60 | 80 | 90 | 0 | 0 | 50 | 0 | 40 | 80 | 80 | 20 | 60 | 0 | 70 | 20 | 60 | 90 | pest or weed control at 500 g/ha [10]: 90%; pest or weed control at 125 g/ha [11]: 60%; pest or weed control at 500 g/ha [11]: 80%; pest or weed control at 125 g/ha [12]: 90%; pest or weed control at 500 g/ha [12]: 90%; pest or weed control at 125 g/ha (Kochia (Kochia scoparia)): 70%; pest or weed control at 500 g/ha (Kochia (Kochia scoparia)): 80%
